# Experimental data reported in patent US12527849B2, “Apparatus for determining administration form of a composition of an engineered virus-based nanoparticle for a treatment of an autoimmune condition” (Diamante Srl, priority 2021, dated 2026).
# How the values were obtained:
# Format in all cases: in vivo
# TGF-β1 = assay: Cytokine ELISA in CIA mice, day 60: TGF-β1; details: serum pooled from five CIA mice
# Description: With continued reference to FIG. 1, in some embodiments, administration 116 may be done to an animal. As a non-limiting example, the animal may include a mouse, a fish, a rabbit, human, and the like. As a non-limiting example, administration 116 of composition of the engineered virus-based nanoparticle for a treatment of an autoimmune condition may be done to dilute, brown, and non-agouti (DBA) mice based on their susceptibility to collagen-induced arthritis (CIA). Female DBA/1 mice 6 to 8 weeks of age may be maintained under specific pathogen-free conditions. CIA may be induced by the intradermal tail base injection of 100 μg of chicken type II collagen (Sigma-Aldrich) as previously described. Five mice per group may be immunized on days 0 and 21 to induce arthritis. The onset of disease may be confirmed on the day that swelling or erythema may be observed in any paw, typically 4 to 10 days after the second immunization. Each experimental group may be treated seven times, 5 days apart, starting from day 28 after the first immunization, with intraperitoneal injections of saline (200 μI per mouse), TBSV·pLIp1, TBSV·pFADK2, pLIp1+IFA, and pFADK2+IFA (all 50 μg per mouse in 200 μl) or dexamethasone (5 μg per mouse in 200 μl). […] CIA may be assessed using a macroscopic score system based on the visual identification of arthritic limbs.
# IL-12p70 = assay: Pro-inflammatory cytokines in sera of CIA Collagen mice (ELISA, day 58): IL-12p70; details: Dexamethasone oral 1 mg/kg, 20 times between day 28 and 57
# Method: (§1) Critical administration 124 disclosed herein is further described below. Q5D represents administration 5 days a part. TBSV·pLIp1 and wt TBSV shown in Table 1 may include liquid form that are not sterile and stored in −20° C. TBSV·pLIp1 may be given at the dose of 50 μG/100 μL Male DBA/1J mice (8 weeks; Envigo, Italy) may be used for these studies. Mice may be housed in individual cages (two for each group) and maintained under a 12:12 light-dark cycle at 21° C.±1° C. and 50%±5% humidity. The animals may be acclimated to their environment for 1 week and had ad libitum access to tap water and standard rodent diet. All animal experiments may be complied with regulations in Italy (D.M. 116192), Europe (O.J of E.C. L 358/112/18/1986), and the United States (Animal Welfare Assurance Number A5594-01, Department of Health and Human Services, USA). […] Arthritis was assessed by using qualitative severity score system and hind paw volume (mL) measured by a plethysmometer on day 20, 22, 24, 26, 28, 30, 32, 34, 36, 38, 40, 42, 44, 46 48, 50, 52, 54, 56 and 58. Body weight was recorded on day 0, 6, 13, 16, 18, 20, 22, 24, 26, 28, 30, 32, 34, 36, 38, 40, 42, 44, 46, 50, 52, 54, 56 and 58. […]
# IFN-γ = assay: Pro-inflammatory cytokines in sera of CIA Collagen mice (ELISA, day 58): IFN-γ; details: Dexamethasone oral 1 mg/kg, 20 times between day 28 and 57
# Method: as §1
# TNF-α = assay: Pro-inflammatory cytokines in sera of CIA Collagen mice (ELISA, day 58): TNF-α; details: Dexamethasone oral 1 mg/kg, 20 times between day 28 and 57
# Method: as §1
compound,measurement,setting,value
"C[C@@H]1C[C@H]2[C@@H]3CCC4=CC(=O)C=C[C@]4(C)[C@@]3(F)[C@@H](O)C[C@]2(C)[C@@]1(O)C(=O)CO [Dexamethasone, dexamethasone]",TGF-β1,TGF-β1,10385.0 pg/mL
same,"IL-12p70, % of reduction vs CIA Collagen",IL-12p70,37.95%
same,"IFN-γ, % of reduction vs CIA Collagen",IFN-γ,37.39%
same,"TNF-α, % of reduction vs CIA Collagen",TNF-α,12.02%
